The target in the experiment is T1, human GPR84 receptor (Homo sapiens, UniProt Q9NQS5).
T1 construct: host or cells: HEK293 cells, transient transfection
The experiment is described as follows: Gαi biosensor BRET assay in HEK293 cells transfected with GPR84, stimulated with the GPR84 agonist ZQ-16. In kind it is cell-based. The note with it: 200 nmol/L ZQ-16; for inhibition at 10 µM / inhibition at 2 µM: HEK293, single concentration; for inhibition at 10 µM: concentration class F = 10 μM; for inhibition at 2 µM: concentration class A = 2 μM. An excerpt:
Background—The following assays can be used for determination of GPR84 activation in living HEK293 cells. The Gαi BRET biosensor (Gagnon et al., 2018; Gales et al., 2006. Nat Struct Mol Biol. 13, 778-86; Saulieres et al., 2012. Nat Chem Biol. 8, 622-30) allows to directly monitor GPR84-mediated activation of Gαi. The Gαi biosensor consists of a Rluc8-tagged Gαi2 subunit, a GFP10-tagged Gγ2 subunit, and an untagged GB1. Agonist stimulation and GPR84 activation triggers a physical separation between the RLuc8-Gαi donor and the GFP10-Gγ2 acceptor, resulting in a decrease in BRET signal whose amplitude is correlated to ligand efficacy (Gales et al., 2006). Moreover, signaling functions of GPCRs are tightly regulated by endocytosis, the targeting of receptors to endosomes and their sorting to lysosomes or recycling to the plasma membrane. The early endosomes (EEs) trafficking assay (Namkung et al., 2016. Nat Commun. 7, 12178) uses Rluc8-tagged GPR84 and Renilla GFP (rGFP) attached to the FYVE domain from human endofin/zinc finger FYVE domain-containing protein 16, which binds phosphatidylinositol 3-phosphate in EEs. Agonist stimulation of GPR84-Rluc8 leads to trafficking of the receptor to EEs, and ensuing increase of the donor concentration relative to the rGFP-FYVE acceptor anchored in the same cellular compartment, and thus results in an increase in BRET signal.
Plasmids—The cDNA clones for human GPR84 receptor, human Gαi2, Gβ1, and Gγ2 were obtained from the cDNA Resource Center (www.cdna.org). GFP10 (F64L, S147P, S202F and H231L variant of Aequorea victoria Green Fluorescent Protein) gBlocks gene fragments (Integrated DNA Technologies, IA) and linker were inserted in frame at the N-terminus of human Gγ2. Rluc8 (A^55T, Cl24A, S130A, K136R, A^143M, M185V, M253L, and S287L variant of the Renilla reniformis luciferase) gBlocks gene fragment was inserted with linkers in frame in between residues 91 and 92 of Gαi2 or at the C-terminus of GPR84. The FYVE domain from human endofin (residues Q739 to K806) attached in frame at the C terminus of a humanized Renilla GFP (rGFP), were synthesized as gBlocks gene fragments.
Bioluminescence Resonance Energy Transfer (BRET) Measurement-HEK293 cells were transfected with GPR84-Rluc8 and rGFP-FYVE for the EEs trafficking biosensor or with GPR84, Gαi2-Rluc8, GFP10-Gγ2, and Gβ1 for the Gαi biosensor. The following day, transiently transfected cells were seeded in 96-well white clear bottom microplates coated with poly-D-lysine and left in culture for 24 hours. Cells were washed once with Tyrode's buffer (140 mmol/L NaCl, 1 mmol/L CaCl2, 2.7 mmol/L KCl, 0.49 mmol/L MgCl2, 0.37 mmol/L NaH2PO4, 5.6 mmol/L glucose, 12 mmol/L NaHCO3, and 25 mmol/L HEPES, pH 7.5) before performing assays in Tyrode's buffer. Test compounds were incubated with cells for 5 (Gai) or 15 (EEs) minutes at 37° C. before addition of 200 nmol/L of the GPR84 agonist ZQ-16 (2-(Hexylthio)-6-hydroxy-4 (3H)-pyrimidinone) for 5 minutes at room temperature (Gai) or 30 minutes at 37° C. (EEs). The Rluc8 substrate coelenterazine 400A (Prolume, Lakeside, AZ) was added at a final concentration of 5 μmol/L and BRET readings were collected using an Infinite M1000 microplate reader (Tecan, Morrisville, NC). BRET2 readings between Rluc8 and GFP10 or rGFP were collected by sequential integration of the signals detected in the 370 to 450 nm (Rluc8) and 510 to 540 nm (GFP10, rGFP) windows. The BRET signal was calculated as the ratio of light emitted by acceptor (GFP10, rGFP) over the light emitted by donor (Rluc8). The values were corrected to net BRET by subtracting the background BRET signal obtained in cells transfected with Rluc8 constructs alone. Ligand-promoted net BRET values were calculated by subtracting vehicle-induced net BRET from ligand-induced net BRET.

What is called IC50 is the concentration needed to halve the response being measured. As a reminder, the inhibition is the relative decrease from the control value, in per cent. Read a low inhibition as a response near the control.

T1 sequence (Q9NQS5 whole entry): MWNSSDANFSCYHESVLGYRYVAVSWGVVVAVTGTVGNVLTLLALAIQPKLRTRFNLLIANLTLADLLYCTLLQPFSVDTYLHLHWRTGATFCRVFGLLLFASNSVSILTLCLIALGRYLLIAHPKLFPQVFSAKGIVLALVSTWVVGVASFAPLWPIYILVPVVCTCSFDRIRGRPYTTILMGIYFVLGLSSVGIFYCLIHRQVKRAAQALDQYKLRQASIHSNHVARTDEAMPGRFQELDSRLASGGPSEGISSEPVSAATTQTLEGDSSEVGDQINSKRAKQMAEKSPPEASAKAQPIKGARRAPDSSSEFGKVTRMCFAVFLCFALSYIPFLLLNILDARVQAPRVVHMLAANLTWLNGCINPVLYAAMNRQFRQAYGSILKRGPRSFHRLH

Regarding `CCc1cc(C#CCNS(C)(=O)=O)ccc1-c1cn(CC2OCC(C)(C)CO2)nn1` [Compound I-1, N-(3-(4-(1-((5,5-dimethyl-1,3-dioxan-2-yl)methyl)-1H-1,2,3-triazol-4-yl)-3-ethylphenyl)prop-2-ynyl)methanesulfonamide], the IC50 lay in the range of 300 to 1000 nM and the inhibition at 10 µM was greater than 75%. Take `CCc1cc(C#CCN)ccc1-c1cn(CC2OCC(C)(C)CO2)nn1` [Compound I-2]: the IC50 was 300 to 1000 nM and the inhibition at 10 µM was greater than 75%.

As to `CC1(C)COC(Cn2cc(-c3ccc(C#CCOC4CC4)cc3C3CC3)nn2)OC1` [Compound I-3], the IC50 was 300 to 1000 nM and the inhibition at 10 µM was greater than 75%. `C(#Cc1ccc(-c2cn(CC3OCC4(CC4)CO3)nn2)c(C2CC2)c1)COC1CC1` [Compound I-4] showed an IC50 of 300 to 1000 nM and an inhibition at 2 µM greater than 75%. `CC(O)C1CN(c2ccc(-c3cn(CC4OCC5(CC5)CO4)nn3)c(N(C)C)c2)C1` (stereo not drawn) [Compound I-5, 1-(1-(4-(1-(5,7-dioxaspiro[2.5]octan-6-ylmethyl)-1H-1,2,3-triazol-4-yl)-3-(dimethylamino)phenyl)azetidin-3-yl)ethanol] yielded an inhibition at 10 µM greater than 75%. Turning to `C(#CC1CCC1)c1cnc(-c2cn(CC3OCC4(CC4)CO3)nn2)c(OC2CC2)c1` [Compound I-6], the inhibition at 2 µM was greater than 75%. In turn, `CN(C)c1cc(N2CC3(CC(O)C3)C2)ccc1-c1cn(CC2OCC3(CC3)CO2)nn1` (stereo not drawn) [Compound I-7, 2-(4-(1-(5,7-dioxaspiro[2.5]octan-6-ylmethyl)-1H-1,2,3-triazol-4-yl)-3-(dimethylamino)phenyl)-2-azaspir[3.3]heptan-6-ol] returned an inhibition at 10 µM greater than 75%. As to `CC(C)(O)C#Cc1cnc(-c2cn(CC3OCC(C)(C)CO3)nn2)c(OC2CC2)c1` [Compound I-8], the IC50 is 300 to 1000 nM and the inhibition at 10 µM was greater than 75%. The compound `C(#Cc1cnc(-c2cn(CC3OCC4(CC4)CO3)nn2)c(OC2CC2)c1)CN1CC2(CC2)C1` [Compound I-9] showed an IC50 of no more than 300 nM and an inhibition at 2 µM greater than 75%. `CC1(C)COC(Cn2cc(-c3ncc(C(=O)NCc4cnccn4)cc3OC3CC3)nn2)OC1` [Compound I-10] yielded an inhibition at 10 µM of no more than 25%. `Cc1ccc(C2CC2)nc1-c1cn(CC2OCC(C)(C)CO2)nn1` [Compound I-11] yielded an inhibition at 2 µM of no more than 25%. Same read-out and setting: next, `Cc1cc(C#CC2CC2)ccc1-c1cn(Cc2cncs2)nn1` [Compound I-12]: no more than 25%. In the case of `Cc1cc(C#CC2CC2)ccc1-c1cn(Cc2cocn2)nn1` [Compound I-13], the inhibition at 10 µM was no more than 25%. The compound `CC1(C)COC(Cn2cc(-c3ncc(C#N)cc3OC3CC3)nn2)OC1` [Compound I-14] yielded an IC50 of 300 to 1000 nM and an inhibition at 10 µM greater than 75%. Compound `CC(=O)NCC#Cc1cnc(-c2cn(CC3OCC(C)(C)CO3)nn2)c(OC2CC2)c1` [Compound I-15] showed an IC50 of no more than 300 nM and an inhibition at 2 µM greater than 75%. Consider `FC1(F)CC12CN(CC#Cc1cnc(-c3cn(CC4OCC5(CC5)CO4)nn3)c(OC3CC3)c1)C2` [Compound I-16], for which the IC50 is no more than 300 nM and the inhibition at 2 µM is greater than 75%. `c1nc(-c2cn(CC3OCC4(CC4)CO3)nn2)c(OC2CC2)cc1N1CC2(CC2)C1` [Compound I-17] had an IC50 of 300 to 1000 nM and an inhibition at 10 µM greater than 75%. `FC1(F)CC12CN(c1cnc(-c3cn(CC4OCC5(CC5)CO4)nn3)c(OC3CC3)c1)C2` [Compound I-18] had an inhibition at 10 µM of 25 to 50%. As to `Cc1cc(C#CC2CC2)ccc1-c1cn(Cc2cscn2)nn1` [Compound I-19], the inhibition at 2 µM is no more than 25%.

As to `c1nc(-c2cn(CC3OCC4(CC4)CO3)nn2)c(OC2CC2)cc1N1CC2(COC2)C1` [Compound I-20], the inhibition at 10 µM was greater than 75%. With `CC1(C)COC(Cn2cc(-c3ncc(C#CCNC4COC4)cc3OC3CC3)nn2)OC1` [Compound I-21], the IC50 is no more than 300 nM and the inhibition at 2 µM is greater than 75%.

`OC1CC2(C1)CN(CC#Cc1cnc(-c3cn(CC4OCC5(CC5)CO4)nn3)c(OC3CC3)c1)C2` (stereo not drawn) [Compound I-22] had an IC50 of no more than 300 nM and an inhibition at 2 µM greater than 75%. The compound `CN(C)C(=O)Cn1cc(-c2ncc(C#CC3CC3)cc2OC2CC2)nn1` [Compound I-23, 2-(4-(3-cyclopropoxy-5-(cyclopropylethynyl)pyridin-2-yl)-1H-1,2,3-triazol-1-yl)-N,N-dimethylacetamide] came in with a concentration for half-maximal inhibition (IC50) of 1000 to 3000 nM and an inhibition at 10 µM greater than 75%.

In turn, `CN(C)C(=O)Cn1cc(-c2ccc(N3CC(C)(CO)C3)cc2N(C)C)nn1` [Compound I-24] showed an IC50 of 1000 to 3000 nM and an inhibition at 10 µM greater than 75%. Compound `CN(C)c1cc(N2CC3(COC3)C2)c(F)cc1-c1cn(CC2OCC3(CC3)CO2)nn1` [Compound I-25] registered a concentration for half-maximal inhibition (IC50) of no more than 300 nM and an inhibition at 2 µM greater than 75%. In turn, `CC1(CO)CN(c2cnc(-c3cn(CC4CC5(CC5)CO4)nn3)c(OC3CC3)c2)C1` (stereo not drawn) [Compound I-26] returned an inhibition at 10 µM greater than 75%. On the same count and under the same terms, next, `CC1(CO)CN(c2cnc(-c3cn(CC4OCC(F)(F)CO4)nn3)c(OC3CC3)c2)C1` [Compound I-27]: 50 to 75%.

The compound `CN(C)c1cc(C#CC2(O)CC2)ccc1-c1cn(CC2OCC(C)(C)CO2)nn1` [Compound I-28] gave an IC50 of no more than 300 nM and an inhibition at 2 µM greater than 75%. In the case of `CC1(C)COC(Cn2cc(C#Cc3ccc(C4CC4)cc3)nn2)OC1` [Compound I-29], the inhibition at 10 µM is no more than 25%.

The compound `CC(O)C1(C)CN(c2ccc(-c3cn(CC4OCC5(CC5)CO4)nn3)c(N(C)C)c2)C1` (stereo not drawn) [Compound I-30] registered an IC50 of no more than 300 nM and an inhibition at 2 µM greater than 75%. `OC1CC2(C1)CN(c1cnc(-c3cn(CC4OCC5(CC5)CO4)nn3)c(OC3CC3)c1)C2` (stereo not drawn) [Compound I-31] showed an IC50 of no more than 300 nM and an inhibition at 10 µM greater than 75%. `CC1(C)COC(Cn2cc(C#Cc3ccncc3)nn2)OC1` [Compound I-32] displayed an inhibition at 10 µM of no more than 25%.

In turn, `Cc1cc(C#CC2CC2)ccc1-c1cn(Cc2cnco2)nn1` [Compound I-33] returned an inhibition at 10 µM of no more than 25%. In the case of `CC1(C)COC(Cn2cc(-c3ncc(C#CC4(O)CC4)cc3OC3CC3)nn2)OC1` [Compound I-34], the IC50 was no more than 300 nM and the inhibition at 2 µM was greater than 75%.

Compound `OC1(C#Cc2cnc(-c3cn(CC4OCC5(CC5)CO4)nn3)c(OC3CC3)c2)CC1` [Compound I-35] gave an IC50 of no more than 300 nM and an inhibition at 2 µM greater than 75%. The like results for `CC1(C)COC(Cn2cc(-c3ncc(C#CCNS(C)(=O)=O)cc3OC3CC3)nn2)OC1` [Compound I-36] were, in that order, no more than 300 nM and greater than 75%. On to `CCc1cc(C#CC(N)=O)ccc1-c1cn(CC2OCC(C)(C)CO2)nn1` [Compound I-37], for which the IC50 was no more than 300 nM and the inhibition at 10 µM was greater than 75%. Consider `CC1(C)COC(Cn2cc(-c3ncc(C#CCNC4CC(F)(F)C4)cc3OC3CC3)nn2)OC1` [Compound I-38], for which the IC50 is no more than 300 nM and the inhibition at 2 µM is greater than 75%. In turn, `CN(C)c1cc(N2CC(C)(CO)C2)ccc1-c1cn(CC2OCC(C)(C)CO2)cn1` [Compound I-39] yielded an IC50 of 300 to 1000 nM and an inhibition at 10 µM greater than 75%.

Source of the values: US20260256747A1, “ARYL-TRIAZOLYL AND RELATED GPR84 ANTAGONISTS AND USES THEREOF” (Liminal BioSciences Limited, priority 2022, published 2026).
